Results taken from patent US10863753B2, “Iron-fortified tea preparations and methods of making same” (The Governing Council of the University of Toronto, priority 2015, dated 2020).
Where “and” joins values, the source holds several entries; their conditions need not be identical. Identical values can stand only once. Like-named read-outs stand apart in the source and are kept apart here.

Key:
[1] = Complexation of iron in gallic acid solution (spectrophotometry); details: for Iron gallic acid complex: 0.3 mM iron; for Reduction of iron polyphenol complex formation: gallic acid
Protocol: To approximate brewed tea, a concentration of 1 g/L and pH 5 were used. Binding of iron was also tested at pH 7 to approximate the pH of the small intestine. Hydrochloric acid and sodium hydroxide were used to adjust and maintain the pH. […] Since the iron-gallate complex is coloured, spectrophotometry was used to quantify the complex formation.

[2] = Iron-polyphenol complex formation in brewed tea (spectrophotometry / colour); format: physicochemical
Protocol: Iron polyphenol complex was measured using spectrophotometry. 2 L of tea were freshly prepared and brewed for 5 minutes. Tea leaves were removed and the liquid was distributed into 6 beakers (250 ml each). A stock solution of ferric EDTA was prepared and increasing volumes were added to each beaker. The maximum UV and Visible light absorbance wavelength for the tea was determined Absorbance at this maximum absorbance wavelength was measured after 5, 20 and 60 minutes. […]
Complex formation was determined using spectrophotometry. […] The maximum UV and visible light wavelength absorbance for the iron-tea polyphenol complex was determined. The maximum absorbance was 580 nm at tea pH and fortified teas were measured after 5, 20 and 60 minutes.

[3] = format: physicochemical; details: for Precipitation in tea extract / Reduction of iron-polyphenol complex formation: tea extract 1 gGAE/L
Protocol: The tea extract was prepared using a solution of 50% by volume N,N-dimethylformamide (DMF) and 50% by volume reverse osmosis purified (RO) water with black tea leaves. […] Tea extract was diluted to the concentration of tea (1 gGAE/L) or to 1/10th of that concentration (0.1 gGAE/L) for use in these experiments and pH was controlled using hydrochloric acid and sodium hydroxide.
Iron complex formation was measured using spectrophotometry and analyzed by normalizing against ferrous sulfate in gallic acid (GA) at the phenolic concentration of tea. Therefore, 100% represents the peak absorbance of ferrous sulfate in a 1 g/L gallic acid solution at pH 5 or pH 7.

[4] = In vitro bioaccessibility, simulated pepsin and pancreatin/bile digestion (Example 3); format: in vitro ADME; details: in tea, no EDTA protection
[5] = tested on: Caco-2 cells; assay: Caco-2 cell transport, bioavailable fraction in basolateral chamber (Example 3)
Protocol: The digested liquid was diluted to half with buffer in order to ensure cells survival during the experiment, and the basolateral camera was filled with 2 ml of buffer. […] The liquid from the basolateral camera was collected and sent for iron analysis using AAS.

[6] = iron source added to tea without EDTA protection
[7] = iron source with EDTA protection, molar ratio 1:2
[8] = target pH 5, tea extract 0.1 gGAE/L, 0.3 mM iron
[9] = target pH 7, tea extract 0.1 gGAE/L, 0.3 mM iron

Compound: O=S(=O)([O-])[O-].[Fe+2] [ferrous sulphate]
- Iron gallic acid complex ([1]; target pH 5, 1 g/L gallic acid): 100 ± 3.0%
- Iron gallic acid complex ([1]; target pH 7, 1 g/L gallic acid): 100 ± 2.0%
- Iron-polyphenol complex formation (colour) [2, 6]: iron-polyphenol complex was formed instantaneously
- Iron-polyphenol complex formation (colour) [2, 7]: effective in avoiding complex formation
- Iron Complex (% FS in 1 g/L GA) ([3]; pH 5): 72 ± 2 % FS in 1 g/L GA
- Iron Complex (% FS in 1 g/L GA) ([3]; pH 7): 85 ± 1 % FS in 1 g/L GA
- Bioaccessibility of iron [4]: lowest bioaccessibility

Compound: O=C([O-])/C=C/C(=O)[O-].[Fe+2] [ferrous fumarate]
- Iron gallic acid complex ([1]; target pH 5, 1 g/L gallic acid): 103 ± 3.0%
- Iron gallic acid complex ([1]; target pH 7, 1 g/L gallic acid): 110 ± 2.0%
- Iron-polyphenol complex formation (colour) [2, 6]: iron-polyphenol complex was formed instantaneously
- Iron-polyphenol complex formation (colour) [2, 7]: effective in avoiding complex formation
- Increased bioavailability with an excess of EDTA versus no protection ([5]; in fortified tea): 4 fold
- Bioavailability of iron ([5]; in tea, added without EDTA protection): 16% and 12%
- Iron Complex (% FS in 1 g/L GA) [3, 8]: 65 ± 2 % FS in 1 g/L GA
- Iron Complex (% FS in 1 g/L GA) [3, 9]: 66 ± 3 % FS in 1 g/L GA
- Precipitation in tea extract [3]: precipitation occurs

Compound: O=C([O-])CN(CCN(CC(=O)[O-])CC(=O)[O-])CC(=O)[O-].[Fe+3].[Na+] [FeNaEDTA, ferric sodium EDTA]
- Reduction of iron polyphenol complex formation ([1]; pH 5): 94%±3%
- Reduction of iron polyphenol complex formation ([1]; pH 7): 93%±2%
- Iron gallic acid complex ([1]; target pH 5, 1 g/L gallic acid): 6.2 ± 0.2%
- Iron gallic acid complex ([1]; target pH 7, 1 g/L gallic acid): 7.0 ± 0.5%
- Iron-polyphenol complex formation (colour) [2, 6]: complex was formed
- Iron-polyphenol complex formation (colour) [2, 7]: effective in avoiding complex formation
- Iron Complex (% FS in 1 g/L GA) [3, 8]: 3.0 ± 0.2 % FS in 1 g/L GA
- Iron Complex (% FS in 1 g/L GA) ([3]; target pH 5, tea extract 0.1 gGAE/L, 0.3 mM iron, listed as Ferric sodium EDTA): 3 % FS in 1 g/L GA
- Iron Complex (% FS in 1 g/L GA) ([3]; target pH 5, tea extract 1 gGAE/L, 0.3 mM iron): 4 ± 6 % FS in 1 g/L GA
- Iron Complex (% FS in 1 g/L GA) [3, 9]: 3.0 ± 0.7 % FS in 1 g/L GA
- Iron Complex (% FS in 1 g/L GA) ([3]; target pH 7, tea extract 0.1 gGAE/L, 0.3 mM iron, listed as Ferric sodium EDTA): 3 % FS in 1 g/L GA
- Iron Complex (% FS in 1 g/L GA) ([3]; target pH 7, tea extract 1 gGAE/L, 0.3 mM iron): 70 ± 8 % FS in 1 g/L GA
- Precipitation in tea extract [3]: not cause precipitation
- Reduction of iron-polyphenol complex formation ([3]; pH 5): 96%
- Reduction of iron-polyphenol complex formation ([3]; pH 7): 30%
